Here are results for 14 compounds from patent publication US10350199B2, “3-(1h-pyrrolo[2,3-b]pyridin-2-yl)-1h-indazoles and therapeutic uses thereof” (Samumed, LLC, priority 2015, dated 2019).

Format in all cases: cell-based
The test system of assay [1] is primary human mesenchymal stem cells (hMSCs). Briefly: Induction of chondrogenesis in human mesenchymal stem cells (nodule area, Rhodamine B/Nile Red). The settings on record: hMSC chondrogenesis; for EC50: concentration required to induce 50% levels of chondrogenesis of TGF-β3 positive control, read-out: Conc (nM) of 50% TGF-β3 activity; for Emax: relative to TGF-β3 (10 ng/mL) positive control, read-out: Max. Activity as % TGF-β3 activity. An excerpt:
Representative compounds were screened using primary human mesenchymal stem cells (hMSCs) to determine their ability to induce chondrogenesis (process by which cartilage is developed).
Primary human mesenchymal stem cells (hMSCs) were purchased from Lonza (Walkersville, Md.) and expanded in Mesenchymal Stem Cell Growth Media (Lonza). Cells between passage 3 and 6 were used for the experiments.
Area of nodules in each well was normalized to the average of 3 DMSO treated wells on the same plate using Excel (Microsoft Inc.). The normalized averages (fold change over DMSO) of 2 or 3 replicate wells for each compound concentration were calculated. Due to solubility limitations of some of the compounds, curve fitting was incomplete leading to inaccurate EC50 determinations.
Using TGF-β3 as a positive control, the concentration of representative compounds required to induce 50% levels of chondrogenesis is reported. In addition, the maximum activity of each compound and the respective dose that each compound reached maximum chondrogenesis activity is reported.

Assay [2] concerns IL-6 (THP-1 human monocyte cell line). Description: IL-6 inhibition in LPS-stimulated THP-1 cells (HTRF). As to conditions: for pEC50: IL-6 inhibition, LPS-stimulated THP-1 cells, HTRF; for inhibition at 10 µM: THP-1, read-out: percentage in parentheses beside EC50 >10 (IL-6 inhibition). In outline: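 THP-1 cells kept 24 h in 1% FBS medium, treated 2 h at 37 °C, then stimulated with 500 ng/mL LPS for another 22 h. IL-6 measured by HTRF as the 665/620 nm ratio; EC50 from a four-parameter fit normalized to DMSO controls.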
A general note: In TR-FRET formats the signal depends on donor and acceptor labels being close together.

Assay [3] relates to Wnt activity (Sp5-Luc reporter, SW480 colon carcinoma cells). Briefly: Wnt activity screening assay, Sp5-Luc reporter gene in SW480 cells. The settings on record: Homo sapiens; for pEC50: Sp5-Luc reporter, SW480 cells, overnight incubation; for inhibition at 10 µM: SW480, read-out: percent inhibition at 10 μM. The essentials: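 SW480 cells stably transduced with lentiviral Sp5 promoter (eight TCF/LEF sites)-firefly luciferase, plated at 4,000 cells/well in 1% FBS medium and incubated overnight at 37° C. Luminescence read after BrightGlo addition, normalized to DMSO-only cells; EC50 from four-parameter variable-slope nonlinear regression.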

The test system of assay [4] is SW480 colon cancer cells. Briefly: Cell viability assay (CellTiter-Blue), SW480 cells, four days. As to conditions: Homo sapiens; for pEC50: 96 h, SW480 cell viability, four days, CellTiter-Blue; for inhibition at 10 µM: SW480, read-out: percent inhibition at 10 μM. In outline:
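Fluorescence from resazurin reduced to resorufin by metabolically active cells was the read-out, taken after ~3 h with CellTiter-Blue.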

Assay [5] concerns primary human fibroblasts derived from IPF patients (LL29 cells) treated with TGF-β1. Briefly: Inhibition of the fibrotic process: αSMA staining in TGF-β1 treated LL29 fibroblasts. The settings on record: Fibroblast; for pEC50: 96 h, LL29 cells, TGF-β1 20 ng/mL, 4 days, % αSMA positive cells; for inhibition at 10 µM: read-out: percent inhibition at 10 μM. In outline:
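IPF-patient-derived LL29 lung fibroblasts in F12 with 1% FBS, stimulated with TGF-β1 alongside compound; TGF-β1 plus DMSO wells served as controls. After 4 days, nuclei stained with 1 μM SYTOX green for 30 min at room temperature, alongside αSMA staining.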

The structures appear in SMILES notation. pEC50: −log10 of the molar value.

What is called pEC50 is the EC50 on a negative log10 scale, so that one unit is a factor of ten. High values mean a low EC50, low ones a high EC50. For the compound `CCC(=O)Nc1cncc(-c2ccc3[nH]nc(-c4cc5c(-c6cccc(F)c6)ccnc5[nH]4)c3c2)c1` [Compound 1, N-(5-(3-(4-(3-Fluorophenyl)-1H-pyrrolo[2,3-b]pyridin-2-yl)-1H-indazol-5-yl)pyridin-3-yl)propionamide], the EC50 in assay [1] came out at 100 nM. Further, the Emax in assay [1] was determined as 167%. In addition, the pEC50 was 5.21 in assay [2], 7.89 in assay [3], 5.99 in assay [4] and 6.85 in assay [5].
As for `CCNCc1cncc(-c2ccc3[nH]nc(-c4cc5c(-c6cccc(F)c6)ccnc5[nH]4)c3c2)c1` [Compound 6, N-((5-(3-(4-(3-Fluorophenyl)-1H-pyrrolo[2,3-b]pyridin-2-yl)-1H-indazol-5-yl)pyridin-3-yl)methyl)ethanamine], the EC50 in assay [1] was 30 nM. In addition, the Emax in assay [1] was 59%. The pEC50 in assay [2] was 5.40; in assay [3] it was 5.78; in assay [4], 6.25; in assay [5], 5.92.
For orientation: inhibition means how much of the control response was suppressed. Regarding `CN(C)Cc1cncc(-c2ccc3[nH]nc(-c4cc5c(-c6cccc(F)c6)ccnc5[nH]4)c3c2)c1` [Compound 13, 1-(5-(3-(4-(3-Fluorophenyl)-1H-pyrrolo[2,3-b]pyridin-2-yl)-1H-indazol-5-yl)pyridin-3-yl)-N,N-dimethylmethanamine], the Emax in assay [1] came out at 48%. For the same compound, the negative logarithm of the EC50 (pEC50) in assay [2] was less than 5.00; in assay [3] it was 5.93; in assay [4] it was 5.53; in assay [5] it was 5.92. For the same compound, the inhibition at 10 µM in assay [2] came out at 55.3%.
Turning to `Fc1ccc(-c2ccnc3[nH]c(-c4n[nH]c5ccc(-c6cncc(CN7CCCC7)c6)cc45)cc23)cc1` [Compound 42, 3-(4-(4-Fluorophenyl)-1H-pyrrolo[2,3-b]pyridin-2-yl)-5-(5-(pyrrolidin-1-ylmethyl)pyridin-3-yl)-1H-indazole], in assay [1], the Emax worked out at 22%. Also, the negative-log EC50 (pEC50) was less than 5.00 in assay [2], less than 5.00 in assay [3], 5.82 in assay [4] and 5.53 in assay [5]. The inhibition at 10 µM in assay [2] came to 40.2%; in assay [3], 14.8%.
Regarding `Fc1ccc(-c2ccnc3[nH]c(-c4n[nH]c5ccc(-c6cncnc6)cc45)cc23)cc1` [Compound 55, 3-(4-(4-Fluorophenyl)-1H-pyrrolo[2,3-b]pyridin-2-yl)-5-(pyrimidin-5-yl)-1H-indazole], the EC50 in assay [1] amounted to 2700 nM. In addition, in assay [1], the Emax stood at 82%. Also, the pEC50 in assay [2], in assay [3], in assay [4] and in assay [5] was less than 5.00 each time. Also, the inhibition at 10 µM stood at 25.6% in assay [2], 11.7% in assay [3], 17.3% in assay [4] and 7.3% in assay [5].
For `Nc1cncc(-c2ccc3[nH]nc(-c4cc5c(-c6ccccc6F)ccnc5[nH]4)c3c2)c1` [Compound 59, 5-(3-(4-(2-Fluorophenyl)-1H-pyrrolo[2,3-b]pyridin-2-yl)-1H-indazol-5-yl) pyridin-3-amine], the Emax in assay [1] was found to be 24%. Moreover, the negative-log EC50 (pEC50) in assay [2] is less than 5.00; in assay [3] it was 6.88; in assay [4], 6.40; in assay [5], 6.23. Besides, the inhibition at 10 µM in assay [2] is 31.6%.
Consider `Cc1ccncc1-c1ccc2[nH]nc(-c3cc4c(-c5ccccc5F)ccnc4[nH]3)c2c1` [Compound 61, 3-(4-(2-Fluorophenyl)-1H-pyrrolo[2,3-b]pyridin-2-yl)-5-(4-methylpyridin-3-yl)-1H-indazole], for which the EC50 in assay [1] came to 30 nM. Also, in assay [1], the Emax worked out at 54%. In addition, the negative-log EC50 (pEC50) in assay [2] is less than 5.00; in assay [3], less than 5.00; in assay [4] it was less than 5.00; in assay [5], 6.35. Also, the figures for the inhibition at 10 µM in assay [2], in assay [3] and in assay [4] were 22.7%, 3.5% and 14.9%, respectively.
Take `CC(C)CC(=O)Nc1cncc(-c2ccc3[nH]nc(-c4cc5c(-c6cccnc6)ccnc5[nH]4)c3c2)c1` [Compound 86, 3-Methyl-N-(5-(3-(4-(pyridin-3-yl)-1H-pyrrolo[2,3-b]pyridin-2-yl)-1H-indazol-5-yl)pyridin-3-yl)butanamide]: in assay [1], the EC50 was 900 nM. Also, in assay [1], the Emax stood at 104%. Also, the negative-log EC50 (pEC50) in assay [2] is 6.26; in assay [3] it was 6.74; in assay [4], less than 5.00; in assay [5] it was less than 5.00. Moreover, the inhibition at 10 µM in assay [4] was determined as 44.6%; in assay [5], 25.9%.
With `c1cncc(-c2ccc3[nH]nc(-c4cc5c(-c6cccnc6)ccnc5[nH]4)c3c2)c1` [Compound 88, 5-(Pyridin-3-yl)-3-(4-(pyridin-3-yl)-1H-pyrrolo[2,3-b]pyridin-2-yl)-1H-indazole], in assay [1], the Emax was 17%. Besides, the pEC50 in assay [2] is 6.19; in assay [3], less than 5.00; in assay [4], less than 5.00; in assay [5], less than 5.00. Besides, the inhibition at 10 µM in assay [3] is 48.8%; in assay [4], 11.2%; in assay [5], 0%.
On to `CCNCc1cncc(-c2ccc3[nH]nc(-c4cc5c(-c6cccnc6)ccnc5[nH]4)c3c2)c1` [Compound 90, N-((5-(3-(4-(Pyridin-3-yl)-1H-pyrrolo[2,3-b]pyridin-2-yl)-1H-indazol-5-yl)pyridin-3-yl)methyl)ethanamine], for which the Emax in assay [1] was 29%. Further, the negative logarithm of the EC50 (pEC50) was 6.25 in assay [2], less than 5.00 in assay [3], less than 5.00 in assay [4] and less than 5.00 in assay [5]. Also, the inhibition at 10 µM turned out to be 28.6% in assay [3], 31.3% in assay [4] and 0% in assay [5].
With `CC(C)Nc1cncc(-c2ccc3[nH]nc(-c4cc5c(-c6cccnc6)ccnc5[nH]4)c3c2)c1` [Compound 96, N-Isopropyl-5-(3-(4-(pyridin-3-yl)-1H-pyrrolo[2,3-b]pyridin-2-yl)-1H-indazol-5-yl)pyridin-3-amine], the Emax in assay [1] was determined as 45%. In addition, the negative-log EC50 (pEC50) was 6.39 in assay [2], less than 5.00 in assay [3], less than 5.00 in assay [4] and less than 5.00 in assay [5]. The values for the inhibition at 10 µM in assay [3], in assay [4] and in assay [5] were 38.9%, 28.2% and 10%, respectively.
In the case of `c1cncc(-c2ccnc3[nH]c(-c4n[nH]c5ccc(-c6cncc(CN7CCCCC7)c6)cc45)cc23)c1` [Compound 99, 5-(5-(Piperidin-1-ylmethyl)pyridin-3-yl)-3-(4-(pyridin-3-yl)-1H-pyrrolo[2,3-b]pyridin-2-yl)-1H-indazole], in assay [1], the EC50 stood at 30 nM. In addition, the Emax in assay [1] turned out to be 62%. Also, the negative logarithm of the EC50 (pEC50) in assay [2], in assay [3], in assay [4] and in assay [5] was less than 5.00 each time. Further, the inhibition at 10 µM in assay [2] came to 0%; in assay [3] it was 18.6%; in assay [4] it was 50.6%; in assay [5], 4%.
Regarding `O=C(Nc1cncc(-c2ccc3[nH]nc(-c4cc5c(-c6cccnc6)ccnc5[nH]4)c3c2)c1)C1CCCCC1` [Compound 107, N-(5-(3-(4-(Pyridin-3-yl)-1H-pyrrolo[2,3-b]pyridin-2-yl)-1H-indazol-5-yl)pyridin-3-yl)cyclohexanecarboxamide], the Emax in assay [1] was 39%. The pEC50 in assay [2], in assay [3], in assay [4] and in assay [5] was less than 5.00 throughout. For the same compound, the inhibition at 10 µM in assay [2] was 34.4%; in assay [3], 10.6%; in assay [4] it was 12%; in assay [5], 41.7%.
For `FC1(F)CCN(Cc2cncc(-c3ccc4[nH]nc(-c5cc6c(-c7cccnc7)ccnc6[nH]5)c4c3)c2)C1` [Compound 110, 5-(5-((3,3-Difluoropyrrolidin-1-yl)methyl)pyridin-3-yl)-3-(4-(pyridin-3-yl)-1H-pyrrolo[2,3-b]pyridin-2-yl)-1H-indazole], in assay [1], the Emax worked out at 20%. Moreover, the pEC50 in assay [2] was 5.48; in assay [3] it was 6.28; in assay [4], less than 5.00; in assay [5], 7.02. Moreover, the inhibition at 10 µM in assay [4] is 51.8%.
